Data as given in PubChem BioAssay (NCI).
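Results reflect a 48-hour exposure of cells in 96-well plates to compound at five concentrations. Definition used: TGI = concentration required for complete inhibition of growth.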

Assays:
Assay in all cases: NCI anticancer screen, dose series, 48 h
786-0 renal = system: 786-0 renal
A498 renal = system: A498 renal
A549 NSCLC = system: A549 NSCLC
ACHN renal = system: ACHN renal
BT-549 breast = system: BT-549 breast
CAKI-1 renal = system: CAKI-1 renal
CCRF-CEM leukemia = system: CCRF-CEM leukemia
COLO 205 colon = system: COLO 205 colon
DU-145 prostate = system: DU-145 prostate
EKVX NSCLC = system: EKVX NSCLC
HCC-2998 colon = system: HCC-2998 colon
HCT-116 colon = system: HCT-116 colon
HCT-15 colon = system: HCT-15 colon
HL-60(TB) leukemia = system: HL-60(TB) leukemia
HOP-62 NSCLC = system: HOP-62 NSCLC
HS 578T breast = system: HS 578T breast
HT29 colon = system: HT29 colon
IGROV1 ovarian = system: IGROV1 ovarian
K-562 leukemia = system: K-562 leukemia
KM12 colon = system: KM12 colon
M14 melanoma = system: M14 melanoma
MALME-3M melanoma = system: MALME-3M melanoma
MCF7 breast = system: MCF7 breast
MDA-MB-231 breast = system: MDA-MB-231 breast
MDA-N = system: MDA-N
MOLT-4 leukemia = system: MOLT-4 leukemia
NCI-H226 lung = system: NCI-H226 lung
NCI-H23 lung = system: NCI-H23 lung
NCI-H460 lung = system: NCI-H460 lung
NCI-H522 lung = system: NCI-H522 lung
NCI/ADR-RES ovarian = system: NCI/ADR-RES ovarian
OVCAR-3 ovarian = system: OVCAR-3 ovarian
OVCAR-4 ovarian = system: OVCAR-4 ovarian
OVCAR-5 ovarian = system: OVCAR-5 ovarian
OVCAR-8 ovarian = system: OVCAR-8 ovarian
PC-3 prostate = system: PC-3 prostate
SF-268 CNS = system: SF-268 CNS
SF-295 CNS = system: SF-295 CNS
SF-539 CNS = system: SF-539 CNS
SK-MEL-28 melanoma = system: SK-MEL-28 melanoma
SK-MEL-5 melanoma = system: SK-MEL-5 melanoma
SK-OV-3 ovarian = system: SK-OV-3 ovarian
SN12C renal = system: SN12C renal
SNB-19 CNS = system: SNB-19 CNS
SW-620 colon = system: SW-620 colon
T-47D breast = system: T-47D breast
U251 CNS = system: U251 CNS
UACC-257 melanoma = system: UACC-257 melanoma
UACC-62 melanoma = system: UACC-62 melanoma
UO-31 renal = system: UO-31 renal
HOP-92 NSCLC = system: HOP-92 NSCLC
LOX IMVI melanoma = system: LOX IMVI melanoma
MDA-MB-435 = system: MDA-MB-435
RPMI-8226 leukemia = system: RPMI-8226 leukemia
RXF 393 renal = system: RXF 393 renal
SK-MEL-2 melanoma = system: SK-MEL-2 melanoma
SNB-75 CNS = system: SNB-75 CNS
SR leukemia = system: SR leukemia
TK-10 renal = system: TK-10 renal

## COC(=O)c1c(O)c2c(c3c1OC(C)(C)CC3)OC(C)(C)CC2
786-0 renal
  TGI: 31.1 µM
A498 renal
  TGI: 34.4 µM
A549 NSCLC
  TGI: 42.7 µM
ACHN renal
  TGI: 32.3 µM
BT-549 breast
  TGI: 37.2 µM
CAKI-1 renal
  TGI: 53.9 µM
CCRF-CEM leukemia
  TGI: 55.6 µM
COLO 205 colon
  TGI: 28.2 µM
DU-145 prostate
  TGI: 74.7 µM
EKVX NSCLC
  TGI: 45.8 µM
HCC-2998 colon
  TGI: 31.2 µM
HCT-116 colon
  TGI: 30.4 µM
HCT-15 colon
  TGI: 35.5 µM
HL-60(TB) leukemia
  TGI: 40.3 µM
HOP-62 NSCLC
  TGI: 42.7 µM
HS 578T breast
  TGI: 47.2 µM
HT29 colon
  TGI: 31.4 µM
IGROV1 ovarian
  TGI: 42.8 µM
K-562 leukemia
  TGI: 69.8 µM
KM12 colon
  TGI: 31.6 µM
M14 melanoma
  TGI: 41 µM
MALME-3M melanoma
  TGI: 20.9 µM
MCF7 breast
  TGI: 33.1 µM
MDA-MB-231 breast
  TGI: 30 µM
MDA-N
  TGI: 51.9 µM
MOLT-4 leukemia
  TGI: 56.1 µM
NCI-H226 lung
  TGI: 35.9 µM
NCI-H23 lung
  TGI: 43.4 µM
NCI-H460 lung
  TGI: 50.6 µM
NCI-H522 lung
  TGI: 34.2 µM
NCI/ADR-RES ovarian
  TGI: 56.2 µM
OVCAR-3 ovarian
  TGI: 36.3 µM
OVCAR-4 ovarian
  TGI: 97.7 µM
OVCAR-5 ovarian
  TGI: 35.2 µM
OVCAR-8 ovarian
  TGI: 33.3 µM
PC-3 prostate
  TGI: 35.7 µM
SF-268 CNS
  TGI: 60.7 µM
SF-295 CNS
  TGI: 32.2 µM
SF-539 CNS
  TGI: 36 µM
SK-MEL-28 melanoma
  TGI: 68.8 µM
SK-MEL-5 melanoma
  TGI: 28.2 µM
SK-OV-3 ovarian
  TGI: 77.1 µM
SN12C renal
  TGI: 32.6 µM
SNB-19 CNS
  TGI: 34.9 µM
SW-620 colon
  TGI: 32.1 µM
T-47D breast
  TGI: 39.5 µM
U251 CNS
  TGI: 29.6 µM
UACC-257 melanoma
  TGI: 50.8 µM
UACC-62 melanoma
  TGI: 40 µM
UO-31 renal
  TGI: 37.4 µM

## Cc1cc(C)nc(NS(=O)(=O)c2ccc(NNc3c4ccccc4nc4c(C(=O)Nc5ccc(S(=O)(=O)N=C(N)N)cc5)cccc34)cc2)n1
786-0 renal
  TGI: > 100 µM
A549 NSCLC
  TGI: > 100 µM
ACHN renal
  TGI: > 100 µM
BT-549 breast
  TGI: > 100 µM
CAKI-1 renal
  TGI: > 100 µM
CCRF-CEM leukemia
  TGI: 98 µM
COLO 205 colon
  TGI: > 100 µM
DU-145 prostate
  TGI: > 100 µM
EKVX NSCLC
  TGI: > 100 µM
HCC-2998 colon
  TGI: > 100 µM
HCT-116 colon
  TGI: > 100 µM
HCT-15 colon
  TGI: > 100 µM
HL-60(TB) leukemia
  TGI: > 100 µM
HOP-62 NSCLC
  TGI: > 100 µM
HOP-92 NSCLC
  TGI: > 100 µM
HT29 colon
  TGI: 77.7 µM
IGROV1 ovarian
  TGI: > 100 µM
K-562 leukemia
  TGI: > 100 µM
KM12 colon
  TGI: > 100 µM
LOX IMVI melanoma
  TGI: > 100 µM
M14 melanoma
  TGI: > 100 µM
MALME-3M melanoma
  TGI: > 100 µM
MCF7 breast
  TGI: > 100 µM
MDA-MB-231 breast
  TGI: > 100 µM
MDA-MB-435
  TGI: > 100 µM
MDA-N
  TGI: > 100 µM
MOLT-4 leukemia
  TGI: > 100 µM
NCI-H226 lung
  TGI: > 100 µM
NCI-H23 lung
  TGI: > 100 µM
NCI-H460 lung
  TGI: > 100 µM
NCI-H522 lung
  TGI: > 100 µM
NCI/ADR-RES ovarian
  TGI: > 100 µM
OVCAR-3 ovarian
  TGI: 96.8 µM
OVCAR-4 ovarian
  TGI: > 100 µM
OVCAR-5 ovarian
  TGI: > 100 µM
OVCAR-8 ovarian
  TGI: > 100 µM
PC-3 prostate
  TGI: > 100 µM
RPMI-8226 leukemia
  TGI: > 100 µM
RXF 393 renal
  TGI: > 100 µM
SF-268 CNS
  TGI: > 100 µM
SF-295 CNS
  TGI: > 100 µM
SF-539 CNS
  TGI: > 100 µM
SK-MEL-2 melanoma
  TGI: 61.5 µM
SK-MEL-28 melanoma
  TGI: 85 µM
SK-MEL-5 melanoma
  TGI: > 100 µM
SK-OV-3 ovarian
  TGI: > 100 µM
SN12C renal
  TGI: > 100 µM
SNB-19 CNS
  TGI: > 100 µM
SNB-75 CNS
  TGI: > 100 µM
SR leukemia
  TGI: 76.1 µM
SW-620 colon
  TGI: > 100 µM
T-47D breast
  TGI: > 100 µM
TK-10 renal
  TGI: > 100 µM
U251 CNS
  TGI: 96.8 µM
UACC-257 melanoma
  TGI: > 100 µM
UO-31 renal
  TGI: > 100 µM

## COc1cc(/C=C2/SC(c3ccccc3)N(c3cc(Cl)ccc3Cl)C2=O)cc(OC)c1OC (configuration not stated)
786-0 renal
  TGI: > 100 µM
A498 renal
  TGI: > 100 µM
A549 NSCLC
  TGI: > 100 µM
ACHN renal
  TGI: > 100 µM
BT-549 breast
  TGI: > 100 µM
CAKI-1 renal
  TGI: 90.8 µM
CCRF-CEM leukemia
  TGI: > 100 µM
COLO 205 colon
  TGI: > 100 µM
DU-145 prostate
  TGI: > 100 µM
EKVX NSCLC
  TGI: > 100 µM
HCC-2998 colon
  TGI: > 100 µM
HCT-116 colon
  TGI: > 100 µM
HCT-15 colon
  TGI: > 100 µM
HL-60(TB) leukemia
  TGI: > 100 µM
HOP-62 NSCLC
  TGI: > 100 µM
HOP-92 NSCLC
  TGI: > 100 µM
HT29 colon
  TGI: > 100 µM
IGROV1 ovarian
  TGI: > 100 µM
K-562 leukemia
  TGI: > 100 µM
KM12 colon
  TGI: > 100 µM
LOX IMVI melanoma
  TGI: > 100 µM
M14 melanoma
  TGI: > 100 µM
MALME-3M melanoma
  TGI: > 100 µM
MCF7 breast
  TGI: > 100 µM
MDA-MB-231 breast
  TGI: > 100 µM
MDA-MB-435
  TGI: 61.1 µM
MDA-N
  TGI: 37.6 µM
MOLT-4 leukemia
  TGI: > 100 µM
NCI-H226 lung
  TGI: > 100 µM
NCI-H23 lung
  TGI: > 100 µM
NCI-H460 lung
  TGI: > 100 µM
NCI-H522 lung
  TGI: > 100 µM
NCI/ADR-RES ovarian
  TGI: > 100 µM
OVCAR-3 ovarian
  TGI: > 100 µM
OVCAR-4 ovarian
  TGI: > 100 µM
OVCAR-5 ovarian
  TGI: > 100 µM
OVCAR-8 ovarian
  TGI: > 100 µM
PC-3 prostate
  TGI: > 100 µM
RPMI-8226 leukemia
  TGI: > 100 µM
RXF 393 renal
  TGI: > 100 µM
SF-295 CNS
  TGI: > 100 µM
SK-MEL-2 melanoma
  TGI: > 100 µM
SK-MEL-28 melanoma
  TGI: > 100 µM
SK-MEL-5 melanoma
  TGI: > 100 µM
SK-OV-3 ovarian
  TGI: > 100 µM
SN12C renal
  TGI: > 100 µM
SNB-19 CNS
  TGI: > 100 µM
SNB-75 CNS
  TGI: > 100 µM
SR leukemia
  TGI: > 100 µM
SW-620 colon
  TGI: > 100 µM
T-47D breast
  TGI: > 100 µM
TK-10 renal
  TGI: > 100 µM
U251 CNS
  TGI: > 100 µM
UACC-257 melanoma
  TGI: > 100 µM
UACC-62 melanoma
  TGI: > 100 µM
UO-31 renal
  TGI: > 100 µM
